Experimental data: patent US20120052528A1, “METHOD FOR PRODUCING SELECTIVE MEDIUM AND USE THEREOF” (THE UNIVERSITY OF TOKYO, priority 2009, published 2012)

Assays:
other bacterial cells = assay: Limited search of carbon sources: colony formation of other bacterial cells from a soil suspension on carbon-source agar medium; conditions: soil suspension smeared on agar medium with the carbon source, 30° C., 5 days; relative value, carbon source-free medium = 100%
Experimental: (§1) Any carbon source, crystal violet (antibiotic) and agar are mixed with basic medium components so as to prepare an agar medium. A soil suspension (100 p1) prepared by suspending of soil for plant cultivation (1 g) in water (100 ml) is smeared (repeatedly 3 times) on the medium, followed by culture at 30° C. for 5 days. The numbers of colonies of filamentous bacterial cells and other bacterial cells that are formed on the medium are counted. Each counted value is represented as a relative value (%) determined based on the number of colonies formed on a “carbon source-free” medium (100%). If the degree of colony formation is less than 30 (for filamentous bacterial cells) and is less than 60 (for bacterial cells), the carbon source is selected as a carbon source having high growth inhibitory effects. The smaller value indicates the smaller number of contaminating germs (filamentous bacteria and other bacteria) that assimilate the carbon source.

[1] = system: filamentous bacterial cells; assay: Limited search of carbon sources: colony formation of filamentous bacterial cells from a soil suspension on carbon-source agar medium; conditions: soil suspension smeared on agar medium with the carbon source, 30° C., 5 days; relative value, carbon source-free medium = 100%
Experimental: as §1

[2] = system: contaminating germs in soil; assay: Limited search of carbon sources: assimilation by contaminating germs in soil; assay type: cell-based; conditions: conclusion from Table 5

Compound | Other bacterial cells Average number of grown colonies ± standard error (other bacterial cells) [%] | Filamentous bacterial cells Average number of grown colonies ± standard error [1] [%] | likelihood of assimilation of the carbon source by contaminating germs in soil [2]
OC[C@@H](O)[C@@H](O)[C@H](O)[C@@H](O)CO [Sorbitol] | 63 ± 5 | 128 ± 2 | 
OC[C@@H](O)[C@@H](O)[C@@H](O)CO [Ribitol] | 67 ± 2 | 139 ± 11 | 
NC(=O)CC[C@H](N)C(=O)O [Glutamine] | 66 ± 4 | 100 ± 0 | 
Polygalacturonic acid | 19 ± 2 | 8 ± 7 | less likely to be assimilated
N[C@@H](CO)C(=O)O [Serine] | 87 ± 3 | 131 ± 16 | 
O=C(O)C(O)C(O)C(=O)O (stereo not drawn) [Tartaric acid] | 81 ± 3 | 64 ± 6 | 
NCCCC[C@H](N)C(=O)O [Lysine] | 56 ± 5 | 33 ± 14 | less likely to be assimilated
NCC(=O)O [Glycine] | 69 ± 5 | 72 ± 2 | 
N[C@@H](Cc1ccccc1)C(=O)O [Phenylalanine] | 36 ± 6 | 47 ± 19 | less likely to be assimilated
O=C(O)[C@@H]1CCCN1 [Proline] | 66 ± 4 | 11 ± 9 | less likely to be assimilated
O=C([O-])CCCCC(=O)[O-].[Na+].[Na+] [Sodium adipate] | 122 ± 10 | 36 ± 18 | 
O=C[C@@H](O)[C@H](O)[C@H](O)CO [Arabinose] | 51 ± 2 | 100 ± 0 | less likely to be assimilated
OC[C@@H](O)[C@@H](O)[C@H](O)[C@H](O)CO [Mannitol] | 54 ± 4 | 27 ± 17 | less likely to be assimilated
CSCC[C@H](N)C(=O)O [Methionine] | 38 ± 4 | 38 ± 16 | less likely to be assimilated
N[C@@H](CCC(=O)O)C(=O)O [Glutamic acid] | 66 ± 6 | 83 ± 14 | 
N=C(N)NCCC[C@H](N)C(=O)O [Arginine] | 99 ± 3 | 19 ± 8 | less likely to be assimilated

Compound | Other bacterial cells Average number of grown colonies ± standard error (other bacterial cells) [%] | Filamentous bacterial cells Average number of grown colonies ± standard error [1] [%] | likelihood of assimilation of the carbon source by contaminating germs in soil [2]
CC(C)[C@H](N)C(=O)O [Valine] | 38 ± 5 | 19 ± 8 | less likely to be assimilated
O=C(CO)[C@H](O)[C@@H](O)[C@H](O)CO [Sorbose] | 68 ± 3 | 128 ± 2 | 
O=C(CO)[C@@H](O)[C@H](O)[C@H](O)CO [Fructose] | 84 ± 3 | 100 ± 0 | 
N[C@@H](Cc1c[nH]c2ccccc12)C(=O)O [Tryptophan] | 100 ± 5 | 167 ± 18 | 
OC[C@H]1O[C@@](CO)(O[C@H]2O[C@H](CO)[C@@H](O)[C@H](O)[C@H]2O)[C@@H](O)[C@@H]1O [Sucrose] | 71 ± 4 | 211 ± 15 | 
CC[C@H](C)[C@H](N)C(=O)O [Isoleucine] | 44 ± 2 | 28 ± 2 | less likely to be assimilated
N[C@@H](Cc1c[nH]cn1)C(=O)O [Histidine] | 62 ± 2 | 203 ± 32 | 
OC[C@H]1O[C@@H](O[C@H]2[C@H](O)[C@@H](O)C(O)O[C@@H]2CO)[C@H](O)[C@@H](O)[C@H]1O (stereo partly drawn) [Lactose] | 77 ± 4 | 128 ± 2 | 
OC[C@H]1O[C@H](O[C@H]2O[C@H](CO)[C@@H](O)[C@H](O)[C@H]2O)[C@H](O)[C@@H](O)[C@@H]1O [Trehalose] | 51 ± 7 | 156 ± 5 | less likely to be assimilated
N[C@@H](CC(=O)O)C(=O)O [Aspartic acid] | 32 ± 3 | 11 ± 9 | less likely to be assimilated
C[C@@H](O)[C@H](N)C(=O)O [Threonine] | 59 ± 5 | 0 ± 0 | less likely to be assimilated
O[C@H]1[C@H](O)[C@@H](O)[C@H](O)[C@@H](O)[C@H]1O [Inositol] | 57 ± 7 | 0 ± 0 | less likely to be assimilated
N[C@@H](Cc1ccc(O)cc1)C(=O)O [Tyrosine] | 55 ± 4 | 81 ± 39 | less likely to be assimilated
CC(C)C[C@H](N)C(=O)O [Leucine] | 42 ± 3 | 67 ± 141 | less likely to be assimilated
O=C[C@H](O)[C@@H](O)[C@H](O[C@@H]1O[C@H](CO)[C@@H](O)[C@H](O)[C@H]1O)[C@H](O)CO [Cellobiose] | 76 ± 5 | 42 ± 18 | 
